In patent US10774111B2, “Opioid peptide” (Embrapa—Empresa Brasileira de Pesquisa Agropecuária, priority 2014, dated 2020):
Ends that are not written are not given here.

Key:
trypsin = conditions: incubation with trypsin enzyme (enzymes present in the gastrointestinal tract), in vitro
Procedure: FIG. 11—Representation of the fragments obtained at the different incubation times with the enzyme trypsin. Analysis performed by mass spectrometry, MALDI. The first spectrum, marked with the letter A, refers to the time of 15 minutes; the second spectrum marked with the letter B indicates the time of 30 minutes; C indicates the time of 2 hour2; D indicates the time of 4 hours; and, finally, E is the control peptide (SEQ ID NO: 6).
FIG. 12—Representation of the fragments obtained at the different incubation times with the enzyme trypsin. Analysis performed by mass spectrometry, MALDI.
By means of this experiment it was possible to try to observe the in vitro peptide digestion by the enzyme present in the organism.

Swiss mice [1] = assay: Hot Plate nociception test in mice; format: in vivo, Mus musculus; conditions: i.p. in mice, dose based on dose and molarity of morphine 10 mg/kg (Leu-enkephalin 19.3 mg/kg), followed 120-240 min
Procedure: (§1) In vivo analyzes: Tests were carried out on Swiss mice of the Mus musculus species, in which nociception tests (Hot Plate and Tail Flick) were used according to Le Bars et al. (2001). Injections were administered via intraperitoneal (IP). Doses were based upon dose and molaridade of the morphine (10 mg/kg animal).
To initiate the nociceptive tests and verify the efficiency of the same, a pilot experiment was carried out using the peptide sequence SEQ ID NO: 2 and evaluating the behavior of the animals in the course of two hours.

Swiss mice [2] = assay: Tail Flick nociception test in mice; format: in vivo, Mus musculus; conditions: i.p. in mice, 240 min
Procedure: as §1

immobilized pepsin = immobilized pepsin (Homo sapiens, UniProt P0DJD8); conditions: 4 hours, 37° C., 1400 RPM
Chain of immobilized pepsin (P0DJD8 63-388): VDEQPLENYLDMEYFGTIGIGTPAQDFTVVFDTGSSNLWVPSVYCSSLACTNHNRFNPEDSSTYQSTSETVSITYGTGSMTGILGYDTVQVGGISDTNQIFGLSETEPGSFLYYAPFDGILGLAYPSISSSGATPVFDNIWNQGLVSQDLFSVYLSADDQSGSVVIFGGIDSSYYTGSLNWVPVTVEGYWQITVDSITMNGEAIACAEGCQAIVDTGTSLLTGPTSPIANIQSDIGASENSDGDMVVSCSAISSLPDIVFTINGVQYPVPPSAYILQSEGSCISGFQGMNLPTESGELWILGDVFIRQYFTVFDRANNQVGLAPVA
Procedure: Digestion of the immobilized pepsin precursor: the peptide sequence SEQ ID NO: 6 was digested using immobilized pepsin for a period of 4 hours at 37° C. under agitation of 1400 RPM evaluating the fragmentation index at the times of 15 minutes, 30 minutes, 2 hours and 4 hours.
The peptide sequence SEQ ID NO: 6 was digested using immobilized pepsin for a period of 4 hours, evaluating the fragmentation index at the times of 15 minutes, 30 minutes, 2 hours and 4 hours.
Enkephalin (Leu) was digested using immobilized pepsin for a period of 4 hours, evaluating the fragmentation index at the times of 30 minutes, 1 hour, 2 hours and 4 hours.

CC(C)C[C@H](NC(=O)[C@H](Cc1ccccc1)NC(=O)CNC(=O)CNC(=O)[C@@H](N)Cc1ccc(O)cc1)C(=O)O [Leu-enkephalin, reference compound]
intensity of the major peak during incubation (trypsin): reducing

SEQ ID NO: 2: synthetic opioid peptide of the formula TyrGlyGly-X1-X2-X3-X4; sequence not printed in the text (YGGTGAH)
antinociceptive (opioid) activity, latency index (Swiss mice [1]): delayed and prolonged activity

SEQ ID NO: 3: synthetic opioid peptide of the formula TyrGlyGly-X1-X2-X3-X4; sequence not printed in the text (YGGEGVQ)
antinociceptive (opioid) activity, latency index (Swiss mice [1]): possible to visualize the activity | antinociceptive activity, latency index (Swiss mice [2]): possible to visualize the activity

SEQ ID NO: 4: synthetic opioid peptide of the formula TyrGlyGly-X1-X2-X3-X4; sequence not printed in the text (YGGTTGT)
antinociceptive (opioid) activity, latency index (Swiss mice [1]): antinociception activity | antinociceptive activity, latency index (Swiss mice [2]): antinociception activity

SEQ ID NO: 5: synthetic opioid peptide of the formula TyrGlyGly-X1-X2-X3-X4; sequence not printed in the text (YGGEGEQ)
antinociceptive (opioid) activity, latency index (Swiss mice [1]): antinociceptive | antinociceptive activity, latency index (Swiss mice [2]): antinociceptive

YGGTAGAHGTY [SEQ ID NO: 6]
intensity of the major peak during incubation (trypsin): reducing | fragmentation index (precursor ion and lower mass ions over time) (immobilized pepsin): increase in the intensity of the lower mass ions over time and the decrease of the precursor ion
